Among the data in patent US20250177362A1, “HETEROCYCLIC GLP-1 AGONISTS” (Gasherbrum Bio, Inc., priority 2022, published 2025) are EC50 values, retold here.

The structures appear in SMILES notation.

In this test the target is T1, GLP-1 Receptor (Homo sapiens, UniProt P43220).
T1 construct: host or cells: HEK293/CRE-Luc (HEK293/GLPIR/CRE-LUC)
T1 sequence (P43220 24-463, species assumed): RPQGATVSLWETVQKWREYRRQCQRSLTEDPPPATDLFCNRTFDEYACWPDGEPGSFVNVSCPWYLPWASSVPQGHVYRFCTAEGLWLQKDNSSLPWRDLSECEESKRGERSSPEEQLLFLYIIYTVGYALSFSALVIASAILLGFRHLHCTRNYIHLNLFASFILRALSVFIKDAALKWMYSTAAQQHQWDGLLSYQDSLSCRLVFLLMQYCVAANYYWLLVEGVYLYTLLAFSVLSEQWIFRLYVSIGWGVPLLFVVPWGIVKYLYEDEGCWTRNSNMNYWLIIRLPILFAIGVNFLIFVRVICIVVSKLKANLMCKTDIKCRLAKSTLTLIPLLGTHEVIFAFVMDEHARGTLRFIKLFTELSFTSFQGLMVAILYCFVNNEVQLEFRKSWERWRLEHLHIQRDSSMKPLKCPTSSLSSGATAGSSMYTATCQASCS
Briefly: GLP-1R agonist cAMP stimulation assay. Format: cell-based. As to conditions: HEK293/CRE-Luc cell line stably expressing the GLP-1 Receptor; 30 min incubation; cAMP dynamic 2 Kit (Cisbio). As to the method:
Activation of GLP-1 receptor is known to stimulate cyclic AMP (cAMP) production in cells which indicates primary coupling to the Gas subunit of the G protein heterotrimeric complex.
To optimize functional activity directed toward Gas coupling, a HEK293/CRE-Luc cell line developed by HDB stably expressing the GLP-1 Receptor was used. 200× concentration of compound working solutions were prepared (Agilent Technologies Bravo) with ½ log serial dilution in 384-well Echo LDV plate (Labcyte, Cat #LP-0200). 50 nL/well 200× concentration of compound working solutions were moved to 384-well white low volume plate (Greiner, Cat #784075) using Labcyte ECHO550. 1×10^5 cells/mL HEK293/GLPIR/CRE-LUC (HD Biosciences) cell suspensions prepared with assay buffer [DPBS containing 0.5 mM IBMX (Sigma, Cat #15879) and 0.10% BSA (GENVIEW, Cat #FA016-100g)], 10 μL cell suspensions were added to each well of previous generated assay plate which already contains 50 nL compound at 200× concentration using ThermoFisher Multidrop Combi (1000 cells/well). Seal the plate and incubate at 37° C. with 5% CO2 for 30 min.
After incubation the cAMP assay signal was generated using cAMP dynamic 2 Kit (Cisbio). 5 μL cAMP-d2 working solution was added to each well, followed with 5 μL Anti-cAMP antibody-cryptate working solution added to each well using ThermoFisher Multidrop Combi. Incubate at room temperature for 1 hour protected from light. Read the fluorescence at 665 and 615 nm with Reader PerkinElmer EnVision.
Take `C[C@]1(c2ccc(Cl)cc2F)Oc2cccc(C3CCN(Cc4nnc(-c5nnc(C(F)(F)F)[nH]5)cc4N4CCC(O)C4)CC3)c2O1` (stereo partly drawn) [F-15, 1-(3-((4-((S)-2-(4-chloro-2-fluorophenyl)-2-methylbenzo[d][1,3]dioxol-4-yl)piperidin-1-yl)methyl)-6-(5-(trifluoromethyl)-4H-1,2,4-triazol-3-yl)pyridazin-4-yl)pyrrolidin-3-ol]: the EC50 (usually the midpoint of the concentration-response curve) was 1 to 100 nM.
Turning to `C[C@]1(c2ccc(Cl)cc2F)Oc2cccc(C3CCN(Cc4ncc(-c5nnc(C(F)(F)F)[nH]5)cc4N4CCOCC4)CC3)c2O1` [F-1, 4-[2-({4-[(2S)-2-(4-chloro-2-fluorophenyl)-2-methyl-2H-1,3-benzodioxol-4-yl]piperidin-1-yl}methyl)-5-[5-(trifluoromethyl)-4H-1,2,4-triazol-3-yl]pyridin-3-yl]morpholine], the 50% effective concentration (EC50) was below 1 nM.
Consider `C[C@]1(c2ccc(Cl)cc2F)Oc2cccc(C3CCN(Cc4ncc(-c5nnc(C(F)(F)F)[nH]5)cc4N4CCNC(=O)C4)CC3)c2O1` [F-9], for which the EC50 was in the range of 1 to 100 nM.
To `CC1(c2ccc(Cl)cc2F)Oc2cccc(C3CCN(Cc4ncc(-c5nnn[nH]5)cc4C4CC4)CC3)c2O1` (stereo not drawn) [F-14, 2-((4-(2-(4-chloro-2-fluorophenyl)-2-methylbenzo[d][1,3]dioxol-4-yl)piperidin-1-yl)methyl)-3-cyclopropyl-5-(1H-tetrazol-5-yl)pyridine] belongs 1 to 100 nM; to `CC1(c2ccc(C(=O)O)cc2F)Oc2cccc(C3CCN(Cc4ncc(-c5nnc(C(F)(F)F)[nH]5)cc4CC4(C#N)CC4)CC3)c2O1` (stereo not drawn) [A-3], 1 to 100 nM; to `Cc1cc(-c2cc(C(=O)O)n[nH]2)cnc1CN1CCC(c2cccc3c2OC(C)(c2ccc(Cl)cc2F)O3)CC1` (stereo not drawn) [E-8], 1 to 100 nM.
Regarding `N#CC1(Cc2cc(-c3nc(C(F)(F)F)n[nH]3)cnc2CN2CCC(c3ccc4cnn(Cc5ccc(Cl)cc5F)c4n3)CC2)CC1` [C-1], the EC50 was below 1 nM.
Under `C[C@]1(c2ccc(Cl)cc2F)Oc2cccc(C3CCN(Cc4nnc(-c5nnc(C(F)(F)F)[nH]5)cc4N4CCOC5(CC5)C4)CC3)c2O1` [F-8, (S)-7-(3-((4-(2-(4-chloro-2-fluorophenyl)-2-methylbenzo[d][1,3]dioxol-4-yl)piperidin-1-yl)methyl)-6-(5-(trifluoromethyl)-4H-1,2,4-triazol-3-yl)pyridazin-4-yl)-4-oxa-7-azaspiro[2.5]octane] stands 1 to 100 nM.
In the case of `C[C@]1(c2ccc(Cl)cc2F)Oc2cccc(C3CCN(Cc4ncc(-c5nnc(C(F)(F)F)[nH]5)cc4C4COC4)CC3)c2O1` [F-19], the half-maximal effective concentration (EC50) was above 100 nM.
